From patent publication US20210386738A1, “COMBINATION OF PRMT5 INHIBITORS AND BCL-2 INHIBITORS” (GLAXOSMITHKLINE INTELLECTUAL PROPERTY DEVELOPMENT LIMITED, priority 2018, published 2021)
Read-outs that look alike come from different tables or passages of the source.

Legend:
[1] = test system: lymphoma cell line U-2932; test: Standard 6-day growth-death assay, U-2932; assay type: cell-based; conditions: single agent or fixed 1:1 combination
Method: The majority cell lines were obtained from GSK BioCat group, American Type Culture Collection (ATCC), or the Deutsche Sammlung von Mikroorganismen and Zellbulturen (DSMZ). All cell lines were maintained in growth medium in T75 cm^2 flasks, incubated at 37° C. with 5% CO2 and split every 3 to 4 days. Growth media conditions and cell line information are detailed in Table 1. Cells were counted using the Vi-Cell Analyzer (Beckman Coulter ViCell) to obtain viable cell counts.
Optimal cell seeding density was determined for all cell lines by monitoring proliferation over a range of seeding densities in 384-well format and identifying the seeding density at which cells grew logarithmically throughout six days. 50 uL of cells per well were plated in 384-well plates at the optimal seeding density in preferred supplemented culture media. Three plates were prepared per cell line and incubated overnight at 37° C. in 5% CO2.
In these studies, lymphoma cell lines were treated with PRMT5 inhibitor, compound A and BCL-2 targeted inhibitor, ABT-199 single agent or in combination using a fixed 1:1 ratio of each inhibitor over a 20-point titration. For compound A single and fixed 1:1 ratio combination with ABT-199 cell proliferation assay, cells were treated in duplicate with a 20-point, two-fold dilution series of Compound A, ABT-199 (≥14 μM top dose) single or combo treatment, and ≤0.15% DMSO final concentration. Plates were incubated for six days at the conditions described above. Cell growth was measured using CellTiter-Glo (Promega) and luminescence signal was detected with a BioTek Synergy Neo microplate reader. A plate of untreated cells was read at the time of compound/biologic addition to determine the T0 value representing the starting number of cells. Data were fit with a four-parameter equation to generate a concentration response curve using Assay Client software.
Results were background corrected by subtraction of values from wells containing no cells, expressed as a percentage of the T0 value (value at time=0), and plotted against compound concentration. The T0 value was normalized to 100% and represents the number of cells present at the time of compound addition. The cellular response was determined for each compound using a 4- or 6-parameter curve fit of cell viability against concentration using Assay Client software. Growth IC50 (gIC50) values correspond to the concentration intersecting the mid-point of the growth window (between DMSO and T0 values). Growth IC100 (gIC100) values correspond to the concentration at which 100% growth inhibition is achieved, based on the growth window. The Ymin−T0 value, a measure of net population cell growth or death, is calculated by subtracting the T0 value (100%) from the Ymin value (%) that is determined from the fit of the concentration response curve. Death EC50 (dEC50) values correspond to the concentration at which 50% net cell death is observed.
Individual curves were quality checked for three criteria: outlier data points, cell growth (population doubling ≥1.5), and proper curve fitting. […] Individual curves were QC checked for outlier data points, cell growth (population doubling ≥1.5), and proper curve fitting. Obvious outlier data points were omitted only as needed to ensure proper curve fit.
For fixed ratio screening, combination activity was assessed by the fold change in gIC50 compared to the 2 single agent curves by dividing the compound ratio as necessary. Combinations showing >3-fold and >5-fold change from single agent are described as below: • Fold changes ≥5 are considered to represent strong synergy. • Fold changes between 3.0 and 4.9 are considered to represent weak synergy. • Fold changes <3 are considered to represent no synergy.

[2] = test system: lymphoma cell line DB; test: Serial dilutions: fixed ABT-199 concentration with Compound A titration, six-day cell proliferation; assay type: cell-based; conditions: for EC50 / IC50: 144 h
Method: Serial dilutions were performed for the combination to ascertain the change in gIC50, gIC100 and dEC50 when the inhibitors are used together in a PRMT5 inhibitor cell proliferation. A first compound plate was prepared where PRMT5 inhibitor, Compound A, was prepared with a 20-point, two-fold dilution series of compound A from column 1 to 20. A second compound plate was prepared using the BCL-2 inhibitor ABT-199. ABT-199 was titrated in a 16-point 2-fold dilution series from row A to Q. A third plate was then created by added equal volume of 12 ul (ABT-199) from each well in the second plate into the corresponding well in the first plate. The third plate comprised rows from A to Q, each row comprising a fixed concentration of ABT-199. Columns 1-20 comprised varying concentrations of compound A from the 20-point dilution. Plates were incubated for six days at the conditions described above. Lymphoma cell line DB was treated with the solution in each of the wells. Cell growth was measured using CellTiter-Glo (Promega) and luminescence signal was detected with a BioTek Synergy Neo microplate reader. A plate of untreated cells was read at the time of compound/biologic addition to determine the T0 value representing the starting number of cells. Data were fit with a four-parameter equation to generate a concentration response curve for each row using Assay Client software. A comparison was made across each row in the third plate to determine, when keeping a fixed concentration of ABT-199, what concentration of compound A is needed to reach the gIC50, gIC100 or dEC50 respectively and the fold change compared to treating the same cell with compound A alone.
Tables 4a-c show the results of the above serial dilution experiments wherein ‘fold change’ is the difference between the amount of compound A needed to achieve gIC50, gIC100 or dEC50 respectively, compared to the amount of compound A needed to achieve gIC50, gIC100 or dEC50 respectively when compound A is given as a single agent.

## O=C(NC[C@H](O)CN1CCc2ccccc2C1)c1ccnc(NC2CCC2)c1 [Compound A]
[1]; Homo sapiens, U2932, 144 h, average of n=2, read-out: dEC50
  EC50: 3070 nM
[1]; Homo sapiens, U2932, 144 h, average of n=2, read-out: gIC50
  IC50: 281 nM
[1]; average of n=2
  Ymin-T0: −88%
  gIC100: 1542 nM
[2]; single agent, six days, read-out: dEC50
  EC50: > 7330 nM
[2]; single agent, six days, read-out: gIC50
  IC50: 631 nM
[2]; with fixed ABT-199 1 nM, six days, read-out: Compound A required for dEC50
  EC50: > 7330 nM
[2]; with fixed ABT-199 1 nM, six days, read-out: compound A required for gIC50
  IC50: 445 nM
[2]; with fixed ABT-199 2 nM, six days, read-out: Compound A required for dEC50
  EC50: > 7330 nM
[2]; with fixed ABT-199 2 nM, six days, read-out: compound A required for gIC50
  IC50: 509 nM
[2]; with fixed ABT-199 4 nM, six days, read-out: Compound A required for dEC50
  EC50: > 7330 nM
[2]; with fixed ABT-199 4 nM, six days, read-out: compound A required for gIC50
  IC50: 514 nM
[2]; with fixed ABT-199 7 nM, six days, read-out: Compound A required for dEC50
  EC50: > 7330 nM
[2]; with fixed ABT-199 7 nM, six days, read-out: compound A required for gIC50
  IC50: 449 nM
[2]; with fixed ABT-199 14 nM, six days, read-out: Compound A required for dEC50
  EC50: > 7330 nM
[2]; with fixed ABT-199 14 nM, six days, read-out: compound A required for gIC50
  IC50: 387 nM
[2]; with fixed ABT-199 29 nM, six days, read-out: Compound A required for dEC50
  EC50: > 7330 nM
[2]; with fixed ABT-199 29 nM, six days, read-out: compound A required for gIC50
  IC50: 351 nM
[2]; with fixed ABT-199 57 nM, six days, read-out: Compound A required for dEC50
  EC50: 5370 nM
[2]; with fixed ABT-199 57 nM, six days, read-out: compound A required for gIC50
  IC50: 247 nM
[2]; with fixed ABT-199 115 nM, six days, read-out: Compound A required for dEC50
  EC50: 4660 nM
[2]; with fixed ABT-199 115 nM, six days, read-out: compound A required for gIC50
  IC50: 209 nM
[2]; with fixed ABT-199 229 nM, six days, read-out: Compound A required for dEC50
  EC50: 4660 nM
[2]; with fixed ABT-199 229 nM, six days, read-out: compound A required for gIC50
  IC50: 115 nM
[2]; with fixed ABT-199 458 nM, six days, read-out: Compound A required for dEC50
  EC50: 3920 nM
[2]; with fixed ABT-199 458 nM, six days, read-out: compound A required for gIC50
  IC50: 119 nM
[2]; with fixed ABT-199 916 nM, six days, read-out: Compound A required for dEC50
  EC50: 2530 nM
[2]; with fixed ABT-199 916 nM, six days, read-out: compound A required for gIC50
  IC50: 78 nM
[2]; with fixed ABT-199 1833 nM, six days, read-out: Compound A required for dEC50
  EC50: 2390 nM
[2]; with fixed ABT-199 1833 nM, six days, read-out: compound A required for gIC50
  IC50: 74 nM
[2]; with fixed ABT-199 3666 nM, six days, read-out: Compound A required for dEC50
  EC50: 2250 nM
[2]; with fixed ABT-199 3666 nM, six days, read-out: compound A required for gIC50
  IC50: 80 nM
[2]; with fixed ABT-199 7331 nM, six days, read-out: Compound A required for dEC50
  EC50: 2300 nM
[2]; with fixed ABT-199 7331 nM, six days, read-out: compound A required for gIC50
  IC50: 15 nM
[2]; single agent
  Fold change over compound A single agent gIC50 (631 nM, most potent of the two agents): 1.0
  Fold change over compound A single agent gIC100 (6489 nM, most potent of the two agents): 1.0
[2]; single agent, six days
  gIC100: 6.489 µM
[2]; with fixed ABT-199 1 nM
  Fold change over compound A single agent gIC50 (631 nM, most potent of the two agents): 1.4
  Fold change over compound A single agent gIC100 (6489 nM, most potent of the two agents): 0.9
[2]; with fixed ABT-199 1 nM, six days
  compound A required for gIC100: 7.331 µM
[2]; with fixed ABT-199 2 nM
  Fold change over compound A single agent gIC50 (631 nM, most potent of the two agents): 1.2
  Fold change over compound A single agent gIC100 (6489 nM, most potent of the two agents): 0.9
[2]; with fixed ABT-199 2 nM, six days
  compound A required for gIC100: 7.331 µM
